Legend:
[1] = target: Insulin-like growth factor-I receptor (Homo sapiens, UniProt P08069); experiment: Recombinant kinase screen (Proqinase), IGF-I receptor; format: biochemical; details: recombinant human enzyme; single experiment, kinase screen by Proqinase
Method: (§1) Full details for the generation of recombinant human KIT intracellular domain and other protein kinases (including Lyn, platelet derived growth factor receptor β, epidermal growth factor receptor, fibroblast growth factor receptor 1, Src, HCK, PYK, FES, Btk, Bmx, c-Ret, c-Fms, Syk, and c-Met) are provided in the Supplemental Methods (see Supporting Information; Methods S1). Experiments on ABL1, Akt1, protein kinase C-α, insulin-like growth factor receptor 1, and Pim1 were carried out by Proqinase (Germany). All other recombinant protein kinases were performed in-house using an enzyme-linked immunoassay; experimental details are provided in the Supplemental Methods (see Supporting Information; Methods S1).

Fes = target: T1, Fes (Homo sapiens, UniProt P07332); experiment: Recombinant kinase ELISA assay, Fes; format: biochemical; details: recombinant human enzyme; ELISA-based assay, poly(Glu,Tyr 4:1) substrate
T1 construct: Fes (2-822; BC035357); 6xHN (N); made in house; host or cells: baculovirus, Sf9 insect cells
T1 sequence (P07332 2-822): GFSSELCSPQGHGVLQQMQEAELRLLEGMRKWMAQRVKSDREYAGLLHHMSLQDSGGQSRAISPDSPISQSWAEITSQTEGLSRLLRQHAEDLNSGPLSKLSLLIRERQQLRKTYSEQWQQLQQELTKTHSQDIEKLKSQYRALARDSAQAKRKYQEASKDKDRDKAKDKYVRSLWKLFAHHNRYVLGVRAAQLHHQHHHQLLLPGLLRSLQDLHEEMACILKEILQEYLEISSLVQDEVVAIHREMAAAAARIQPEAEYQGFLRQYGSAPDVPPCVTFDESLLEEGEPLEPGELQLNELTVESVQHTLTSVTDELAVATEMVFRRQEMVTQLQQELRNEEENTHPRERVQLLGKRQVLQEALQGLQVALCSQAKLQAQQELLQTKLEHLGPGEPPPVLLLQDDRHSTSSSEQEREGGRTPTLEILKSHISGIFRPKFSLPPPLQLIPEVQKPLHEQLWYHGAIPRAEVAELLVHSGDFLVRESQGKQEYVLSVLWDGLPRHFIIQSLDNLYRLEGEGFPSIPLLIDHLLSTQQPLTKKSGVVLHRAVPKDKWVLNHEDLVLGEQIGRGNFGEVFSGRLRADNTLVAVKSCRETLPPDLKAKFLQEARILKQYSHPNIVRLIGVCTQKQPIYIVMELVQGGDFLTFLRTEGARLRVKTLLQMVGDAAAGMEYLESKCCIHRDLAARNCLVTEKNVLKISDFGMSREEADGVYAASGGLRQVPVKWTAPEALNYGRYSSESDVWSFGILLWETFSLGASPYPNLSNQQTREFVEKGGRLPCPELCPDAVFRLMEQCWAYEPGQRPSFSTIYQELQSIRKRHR
Method: as §1
The sequences encoding PDGF receptor β (residues 554–1106; GenBank accession no. BC032224), Lyn B (2–583; accession no. BC059394), fibroblast growth factor receptor 1 (572–959; accession no. BC018128), Src (2–536; accession no. BC011566), Btk (2–659; accession no. BC109079), Bmx (2–675; accession no. BC016652), c-Ret (713–1114; accession no. BC004257), c-Fms (538–972; BC047531), Syk (2–612; BC011399), Hck (2-526; accession no. BC014435), Fes (2-822; accession no. BC035357), PYK2 (2-1006; accession no. BC042599) and c-Met (949–1398; accession no. lifeseq3489592) were amplified by PCR from IMAGE cDNA clones purchased from Openbiosystems. […]

c-Ret = target: T2, c-Ret (Homo sapiens, UniProt P07949); experiment: Ba/F3 cell proliferation (WST-1), c-Ret; details: Ba/F3 cells expressing the enzyme, read-out: Cell-based assay IC50, c-Ret
T2 construct: expressed in transfected cells; host or cells: Ba/F3 (general description; not repeated for this kinase)

Jak2 = Jak2 (Homo sapiens, UniProt O60674); experiment: Ba/F3 cell proliferation (WST-1), Jak2; details: Ba/F3 cells expressing the enzyme, read-out: Cell-based assay IC50, Jak2
Chain of Jak2 (O60674 whole entry): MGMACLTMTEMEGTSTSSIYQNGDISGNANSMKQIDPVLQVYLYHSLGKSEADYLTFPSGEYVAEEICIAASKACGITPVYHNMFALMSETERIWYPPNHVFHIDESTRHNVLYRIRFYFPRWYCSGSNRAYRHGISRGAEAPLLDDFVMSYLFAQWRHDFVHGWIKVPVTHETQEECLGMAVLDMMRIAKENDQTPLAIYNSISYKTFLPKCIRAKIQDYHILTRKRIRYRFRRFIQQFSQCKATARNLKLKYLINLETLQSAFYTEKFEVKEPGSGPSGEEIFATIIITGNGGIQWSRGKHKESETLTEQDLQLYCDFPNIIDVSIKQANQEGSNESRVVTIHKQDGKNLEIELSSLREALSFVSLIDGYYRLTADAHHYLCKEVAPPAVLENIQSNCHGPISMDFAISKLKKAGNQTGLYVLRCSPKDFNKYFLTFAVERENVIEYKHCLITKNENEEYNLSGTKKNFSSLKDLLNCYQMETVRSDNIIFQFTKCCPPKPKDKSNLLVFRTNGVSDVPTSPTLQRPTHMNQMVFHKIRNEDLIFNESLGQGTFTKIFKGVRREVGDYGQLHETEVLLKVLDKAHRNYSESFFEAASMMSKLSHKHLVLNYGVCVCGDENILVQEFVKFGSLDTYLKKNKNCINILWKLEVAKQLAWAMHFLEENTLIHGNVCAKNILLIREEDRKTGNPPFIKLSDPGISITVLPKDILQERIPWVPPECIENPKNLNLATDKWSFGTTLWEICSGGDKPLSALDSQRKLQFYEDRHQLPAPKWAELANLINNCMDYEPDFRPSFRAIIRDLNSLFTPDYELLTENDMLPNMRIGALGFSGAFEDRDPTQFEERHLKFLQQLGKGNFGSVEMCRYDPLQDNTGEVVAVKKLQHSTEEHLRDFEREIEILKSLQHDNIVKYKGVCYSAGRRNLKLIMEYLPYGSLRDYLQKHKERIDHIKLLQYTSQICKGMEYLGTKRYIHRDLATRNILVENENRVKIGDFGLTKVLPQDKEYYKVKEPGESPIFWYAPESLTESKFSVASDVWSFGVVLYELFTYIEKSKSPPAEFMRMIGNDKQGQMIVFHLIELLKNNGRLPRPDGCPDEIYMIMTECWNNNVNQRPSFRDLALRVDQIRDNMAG

[2] = tested on: murine bone marrow mast cell (BMMC); experiment: Transwell migration of BMMC in response to rmSCF; format: cell-based; details: Mus musculus, 4 hours, read-out: inhibition of migration of SCF-stimulated BMMCs relative to the control
Method: Migration of murine BMMCs was evaluated using a transwell migration assay [35]. […] Filters were then placed in wells containing 600 µL of chemotaxis buffer supplemented with or without 10 ng/mL of rmSCF, for stimulated or unstimulated BMMCs, respectively. After 4 hours incubation at 37°C in 5% CO2, cells from the bottom chamber were resuspended and counted using a FACS Scan over 20 seconds. All assays were performed in triplicate and counts were repeated twice for each well. For tyrosine kinase inhibitor treatment, 1×10^7 mast cells were pretreated for 1.5 hours at 37°C in complete medium (OPTI MEM, 10% foetal calf serum (FCS), 1% antibiotics and 2-mercaptoethanol 5×10^−5 M, 10 ng/ml rIL3) either with 1 µM of inhibitor or an equivalent volume of DMSO.

[3] = tested on: EOL1 cells expressing the FIP1L1-PDGFRα chimeric protein; experiment: EOL1 cell proliferation; format: cell-based; details: Homo sapiens, EOL1, read-out: IC50, inhibition of proliferation in EOL1 cells
Method: Figures 5C), a hypereosinophilic tumour cell line expressing the FIP1L1-PDGFRα chimeric protein, which is associated with chronic eosinophilic leukaemia.
Cell growth was assessed by WST-1 colorimetric assay. […] (D) Western blotting analysis of EOL1 tyrosine phosphorylation. MW = molecular weight markers.

[4] = tested on: Δ27-expressing Ba/F3 cells; experiment: Ba/F3 Δ27 tumour model in nude mice; format: in vivo; details: for average tumour volume increase: days 14 to 25, tumours 40 mm^3, vehicle 1200%; for animals with no detectable tumours at day 25: n = 8 per group
Method: Nude mice were gamma-irradiated and implanted after 24 hours with Δ27-expressing Ba/F3 cells by subcutaneous injection.
placebo (vehicle control); or untreated (n = 8 per group). […]
Female MBRI Nu/Nu mice (7 weeks old) (Janvier, France) were housed under specific pathogen-free conditions at 20±1°C with a 12 hours light/12 hours dark cycle and ad libitum access to food and filtered water. The mice were allowed to acclimatise to the study conditions for 10 to 20 days prior to experiments. All animal experiments were performed according to Centre national de la recherche scientifique (CNRS) ethical guidelines of animal experimentation. […] The cells were centrifuged and resuspended at 5×10^6 or 7.5×10^6 cells/ml in phosphate-buffered saline. Mice were treated with 5 Gy of gamma radiation and after 24 hours they were injected in the right flank with 1.5×10^6 Δ27 Ba/F3 cells. […] For all animals, body weight was measured on the day of injection and every 5 days thereafter, with the tumour's size measured via callipers every 5 days during the treatment period for estimation of tumour volume. During the predose period and for 2 weeks post-treatment, the animals were checked for mortality or signs of morbidity once a day, increasing to twice a day checks during the treatment period.
Survival in the in vivo mouse studies was assessed by Kaplan-Meier analysis using GraphPad Prism (GraphPad Software, Inc. USA) with comparison of survival curves performed by the logrank Mantel-Cox test. The appropriate Wilcoxon or Kruskall-Wallis tests were used for group comparison of tumour volumes and BMMC migration.

mouse lymphoma = experiment: Mouse lymphoma assay; format: cell-based; details: our unpublished results
TrkB = TrkB (Homo sapiens, UniProt Q16620); details: read-out: Cell-based assay IC50, TrkB; Ba/F3 cells expressing the enzyme; cell proliferation, WST-1
Chain of TrkB (Q16620 32-822, species assumed): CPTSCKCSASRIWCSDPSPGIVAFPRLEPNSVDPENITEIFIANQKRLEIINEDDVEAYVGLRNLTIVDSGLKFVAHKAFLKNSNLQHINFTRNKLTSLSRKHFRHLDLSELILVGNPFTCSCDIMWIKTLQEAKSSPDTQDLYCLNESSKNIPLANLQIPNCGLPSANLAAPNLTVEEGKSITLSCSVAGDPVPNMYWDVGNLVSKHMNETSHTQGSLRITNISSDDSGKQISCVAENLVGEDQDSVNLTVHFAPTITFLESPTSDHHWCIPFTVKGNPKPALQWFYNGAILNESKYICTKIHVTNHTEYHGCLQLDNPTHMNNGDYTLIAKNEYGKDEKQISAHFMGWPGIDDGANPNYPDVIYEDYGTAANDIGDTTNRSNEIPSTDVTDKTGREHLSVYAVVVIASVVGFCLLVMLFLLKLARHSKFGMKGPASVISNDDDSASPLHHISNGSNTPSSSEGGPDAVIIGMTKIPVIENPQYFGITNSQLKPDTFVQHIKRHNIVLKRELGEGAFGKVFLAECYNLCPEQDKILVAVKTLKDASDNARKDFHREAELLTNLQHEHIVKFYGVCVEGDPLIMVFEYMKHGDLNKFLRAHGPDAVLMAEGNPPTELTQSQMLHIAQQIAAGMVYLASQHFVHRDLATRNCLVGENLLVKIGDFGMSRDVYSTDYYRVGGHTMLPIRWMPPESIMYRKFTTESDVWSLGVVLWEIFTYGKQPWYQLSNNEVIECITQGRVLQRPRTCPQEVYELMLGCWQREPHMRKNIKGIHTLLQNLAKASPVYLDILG

Chain of Insulin-like growth factor-I receptor (P08069 31-1367): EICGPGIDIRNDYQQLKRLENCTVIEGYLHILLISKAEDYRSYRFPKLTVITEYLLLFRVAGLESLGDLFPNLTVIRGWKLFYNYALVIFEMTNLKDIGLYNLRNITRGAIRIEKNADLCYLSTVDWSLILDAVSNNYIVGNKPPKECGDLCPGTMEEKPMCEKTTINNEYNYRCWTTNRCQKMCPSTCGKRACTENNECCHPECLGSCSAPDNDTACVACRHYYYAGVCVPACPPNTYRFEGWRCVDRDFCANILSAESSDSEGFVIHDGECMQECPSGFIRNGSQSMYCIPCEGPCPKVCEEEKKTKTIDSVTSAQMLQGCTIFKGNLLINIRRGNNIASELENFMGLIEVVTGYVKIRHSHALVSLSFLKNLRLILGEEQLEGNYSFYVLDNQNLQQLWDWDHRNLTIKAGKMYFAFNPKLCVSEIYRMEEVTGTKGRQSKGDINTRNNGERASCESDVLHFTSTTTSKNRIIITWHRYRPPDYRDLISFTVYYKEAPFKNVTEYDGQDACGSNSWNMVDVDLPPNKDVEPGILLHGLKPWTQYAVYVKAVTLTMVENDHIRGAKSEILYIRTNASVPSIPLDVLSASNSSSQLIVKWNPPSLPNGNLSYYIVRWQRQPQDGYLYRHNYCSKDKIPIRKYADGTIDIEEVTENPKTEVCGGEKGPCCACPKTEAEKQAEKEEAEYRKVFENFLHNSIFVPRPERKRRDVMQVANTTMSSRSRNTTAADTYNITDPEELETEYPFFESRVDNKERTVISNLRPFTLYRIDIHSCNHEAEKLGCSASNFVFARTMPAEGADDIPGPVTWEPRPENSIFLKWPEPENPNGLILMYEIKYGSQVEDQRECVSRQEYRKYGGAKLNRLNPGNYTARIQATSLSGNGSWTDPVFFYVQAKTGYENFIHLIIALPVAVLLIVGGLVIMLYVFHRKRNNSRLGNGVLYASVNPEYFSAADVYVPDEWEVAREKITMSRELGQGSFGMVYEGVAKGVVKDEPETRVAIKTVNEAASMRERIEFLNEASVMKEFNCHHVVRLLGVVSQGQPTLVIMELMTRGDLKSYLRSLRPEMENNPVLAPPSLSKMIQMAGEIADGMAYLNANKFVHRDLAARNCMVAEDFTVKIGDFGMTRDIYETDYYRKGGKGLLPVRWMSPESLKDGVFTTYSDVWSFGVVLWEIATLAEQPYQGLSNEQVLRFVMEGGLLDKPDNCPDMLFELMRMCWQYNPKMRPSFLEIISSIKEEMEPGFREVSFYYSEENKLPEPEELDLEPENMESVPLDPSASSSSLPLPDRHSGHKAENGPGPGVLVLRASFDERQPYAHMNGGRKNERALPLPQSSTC

CS(=O)(=O)O.CS(=O)(=O)O.Cc1ccc(NC(=O)c2ccc(CN3CCN(C)CC3)cc2)cc1Nc1nc(-c2cccnc2)cs1 [masitinib, 4-(4-methylpiperazin-1-ylmethyl)-N-[4-methyl-3-(4-pyridin-3ylthiazol-2-ylamino)phenyl]benzamide-mesylate methane sulfonic acid salt]
IC50 [1]: > 10 µM
IC50 (Fes): > 10 µM
IC50 (c-Ret): 8 ± 1.2 µM
IC50 (Jak2): 10 ± 0.8 µM
inhibition at 1 µM [2]: ~79.6%
IC50 [3]: 0.0002 ± 0.0001 µM
effect on total body weight ([4]; 30 mg/kg intraperitoneal twice daily for 25 days): did not affect the total body weight
tumour growth ([4]; 30 mg/kg intraperitoneal twice daily for 25 days, tumours 400 mm^3): Tumour growth stabilised
median survival time ([4]; 30 mg/kg intraperitoneal twice daily for 25 days, tumours 400 mm^3, control 30.5 days): 42 days
average tumour volume, placebo group compared to masitinib treated group ([4]; 30 mg/kg intraperitoneal twice daily, after 10 days of treatment (day 29)): ~4 fold
average tumour volume increase ([4]; 30 mg/kg oral twice daily): 355%
animals with no detectable tumours at day 25 ([4]; 30 mg/kg oral twice daily): one
average tumour volume increase ([4]; 45 mg/kg oral twice daily): 154%
animals with no detectable tumours at day 25 ([4]; 45 mg/kg oral twice daily): two
tumour growth ([4]; 100 mg/kg oral twice daily, 5 days, tumours 500 mm^3 (data not shown)): tumour growth was blocked
effect on body weight gain ([4]; 10, 30, or 45 mg/kg oral twice daily): did not affect body weight gain
mutagenicity in a mouse lymphoma assay (mouse lymphoma): not mutagenic
IC50 (TrkB): 7 ± 1.9 µM
